According to ChEMBL document CHEMBL1240362, “Intrapulmonary pharmacokinetics of S-013420, a novel bicyclolide antibacterial, in healthy Japanese subjects” (Antimicrob Agents Chemother, 2010):
Converted amounts (≈) assume the structure as drawn.

Legend:
Assay type in all cases: functional
Streptococcus pneumoniae = experiment: Antimicrobial activity against Streptococcus pneumoniae
Streptococcus pyogenes = experiment: Antimicrobial activity against Streptococcus pyogenes
Staphylococcus aureus = experiment: Antimicrobial activity against methicillin susceptible Staphylococcus aureus
Haemophilus influenzae = experiment: Antimicrobial activity against Haemophilus influenzae

Compound | MIC90 (Streptococcus pneumoniae; Streptococcus pneumoniae, read-out: MIC90) [µg/mL] | MIC90 (Streptococcus pyogenes) [µg/mL] | MIC90 (Staphylococcus aureus) [µg/mL] | MIC90 (Streptococcus pneumoniae) [µg/mL] | MIC90 (Haemophilus influenzae) [µg/mL]
CC[C@H]1OC(=O)[C@H](C)[C@@H](O[C@H]2C[C@@](C)(OC)[C@@H](O)[C@H](C)O2)[C@H](C)[C@@H](O[C@@H]2O[C@H](C)C[C@H](N(C)C)[C@H]2O)[C@](C)(OC)C[C@@H](C)C(=O)[C@H](C)[C@@H](O)[C@]1(C)O [CLARITHROMYCIN] | 1 (≈ 1.34 µM) | 1 (≈ 1.34 µM) | 1 (≈ 1.34 µM) | – | –
CC[C@H]1OC(=O)[C@H](C)[C@@H](O[C@H]2C[C@@](C)(OC)[C@@H](O)[C@H](C)O2)[C@H](C)[C@@H](O[C@@H]2O[C@H](C)C[C@H](N(C)C)[C@H]2O)[C@](C)(O)C[C@@H](C)CN(C)[C@H](C)[C@@H](O)[C@]1(C)O [AZITHROMYCIN] | – | 1 (≈ 1.34 µM) | 1 (≈ 1.34 µM) | 1 (≈ 1.34 µM) | –
CC[C@H]1OC(=O)[C@H](C)C(=O)[C@H](C)[C@@H](O[C@@H]2O[C@H](C)C[C@H](N(C)C)[C@H]2O)[C@](C)(OC)C[C@@H](C)C(=O)[C@H](C)[C@H]2N(CCCCn3cnc(-c4cccnc4)c3)C(=O)O[C@]12C [TELITHROMYCIN] | – | – | – | – | 4 (≈ 4.93 µM)
